Patent US10782295B2, “Cysteine-reactive ligand discovery in proteomes” (THE SCRIPPS RESEARCH INSTITUTE, priority 2013, dated 2020)

Legend:
C22A-ZAK = molecular target: T1, C22A-ZAK (Homo sapiens, UniProt Q9NYL2, C22A); assay: in-gel fluorescence labeling by HNEyne probe; assay type: binding; conditions: in vitro (10 μM) and in living cells (5 μM), 1 hour
T1 construct: Full-length cDNA encoding human ZAK-13 (BC001401); expressed in transfected cells
Procedure: (§1) The gel signals for IA-labeling of WT-ZAK were blocked by pretreatment with HNE over a concentration range that closely matched the HNE-sensitivity profile observed for C22 in competitive isoTOP-ABPP experiments (FIG. 4b, compare to FIG. 3a). […] Considering further that C22 is predicted to reside adjacent to the ATP-binding loop of ZAK, we postulated that the HNE-induced loss of kinase activity might be due to blockade of ATP-binding.
(§2) 50 μL of soluble lysate (1 mg/mL in PBS) of […] cells transfected with mock ZAKWT and ZAK-C22A was labeled with 10 μM of HNEyne4 (Cayman Chemicals, 1 μL of 500 μM stock in ethanol) for 1 hour at room temperature. Cycloaddition was performed with 200 μM rhodamine-azide, 1 mM TCEP, 100 μM TBTA ligand and 1 mM CuSO4. The reaction was allowed to proceed at room temperature for 1 hour before quenching with 20 μL of 4×SDS-PAGE loading buffer (reducing). Quenched reactions were separated by SDS-PAGE (40 μL of sample/lane) and visualized in-gel using a fluorescence scanner. For the in situ HNEyne labeling, WT- and C22A-ZAK transfected cells were grown in a 6-well plate to 100% confluency and switched into 1 mL of serum-free DMEM medium. […] 50 μL of soluble lysates were subjected to the cycloaddition protocol as described above and probe labeling was monitored by in-gel fluorescence.

WT-ZAK = molecular target: T2, WT-ZAK (Homo sapiens, UniProt Q9NYL2); assay: in-gel fluorescence labeling by HNEyne probe; assay type: binding; conditions: in vitro (10 μM) and in living cells (5 μM), 1 hour
T2 construct: Full-length cDNA encoding human ZAK-13 (BC001401); expressed in transfected cells
Procedure: as §1, §2

T1 sequence (Q9NYL2 1-455 isoform Q9NYL2-2 C22A): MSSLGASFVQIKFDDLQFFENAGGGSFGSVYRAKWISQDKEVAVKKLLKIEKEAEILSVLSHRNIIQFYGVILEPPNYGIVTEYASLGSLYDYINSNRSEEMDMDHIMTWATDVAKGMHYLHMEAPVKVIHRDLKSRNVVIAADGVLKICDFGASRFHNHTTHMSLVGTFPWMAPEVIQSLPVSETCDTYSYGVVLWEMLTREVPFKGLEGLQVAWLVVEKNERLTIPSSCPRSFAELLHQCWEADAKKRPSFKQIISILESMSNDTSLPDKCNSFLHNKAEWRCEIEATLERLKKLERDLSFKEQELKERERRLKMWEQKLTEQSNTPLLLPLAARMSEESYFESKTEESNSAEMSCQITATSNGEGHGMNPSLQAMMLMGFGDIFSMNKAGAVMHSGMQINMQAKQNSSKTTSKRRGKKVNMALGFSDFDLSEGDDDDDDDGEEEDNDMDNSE
T2 sequence (Q9NYL2 1-455 isoform Q9NYL2-2): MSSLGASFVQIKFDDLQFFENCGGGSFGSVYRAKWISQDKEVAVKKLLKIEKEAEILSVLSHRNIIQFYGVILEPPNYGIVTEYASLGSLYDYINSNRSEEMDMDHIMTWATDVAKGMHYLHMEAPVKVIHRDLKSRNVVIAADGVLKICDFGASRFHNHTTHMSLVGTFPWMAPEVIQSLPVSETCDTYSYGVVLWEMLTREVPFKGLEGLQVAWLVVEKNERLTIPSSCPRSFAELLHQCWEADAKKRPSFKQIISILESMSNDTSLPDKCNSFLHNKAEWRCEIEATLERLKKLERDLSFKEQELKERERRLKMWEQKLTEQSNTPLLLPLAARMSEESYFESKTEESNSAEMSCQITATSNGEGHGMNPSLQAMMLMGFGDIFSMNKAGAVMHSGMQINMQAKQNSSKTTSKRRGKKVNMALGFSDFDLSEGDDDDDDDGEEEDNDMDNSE

C#CCCCC(O)C=CC=O (centres unmarked) [HNEyne]
probe labeling of C22A-ZAK mutant (C22A-ZAK): but not the C22A-ZAK mutant
probe labeling of WT-ZAK (WT-ZAK): direct labeling
